Experimental findings from US20110166132A1, “Gamma Secretase Modulators” (Amgen Inc., priority 2007, published 2011) are described below.

The assay concerns the target T1, gamma secretase (Homo sapiens, UniProt P49768).
T1 construct: HEK293 cells stably expressing full length Amyloid Precursor Protein (APP); endogenous in cells; host or cells: HEK 293 cells stably expressing full length APP
As to the kind of experiment: GSM cell-based assay: Aβ 42 inhibition or reduction in HEK 293 cells over-expressing APP (sandwich ELISA). As to conditions: approximate IC50; HEK293 cells stably expressing full length APP, 24 hours incubation, 10-point dose response starting at 10 μM. The essentials:
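APP-overexpressing HEK293 cells treated 24 h with 10-point doses from 10 μM (0.1% DMSO). Aβ42 in conditioned medium measured by sandwich ELISA (RabMAb 42 capture, biotinylated 6E10 detection, Eu time-resolved fluorescence); CellTiter-Blue viability run in parallel. IC50 from percent of control versus concentration.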
`Cc1cc(-c2ccc(NC(=O)C(C)c3cccc(C4CCN(CCO)CC4)c3)cc2)ccn1` (stereo not shown) [Cpd 140] displayed an IC50 of over 10 µM.

`Cc1cc(-c2ccc(NC(=O)C3(c4ccccc4F)CC3)cc2)ccn1` [Cpd 288]: the IC50 worked out at 1.77 µM.

The molecule `Cc1cc(-c2ccc(NC(=O)Cc3ccc(OCc4ccccc4)cc3)cc2)ccn1` [Cpd 111, 2-(4-(benzyloxy)phenyl)-N-(4-(2-methyl-4-pyridinyl)phenyl)acetamide] came in with an IC50 of 3.3 µM.

For the molecule `Cc1cc(-c2ccc(NC(=O)C(C)c3cccc(N4CCN(c5ccccn5)CC4)c3)cc2)ccn1` (stereo not shown) [Cpd 139, N-(4-(2-methyl-4-pyridinyl)phenyl)-2-(3-(4-(2-pyridinyl)-1-piperazinyl)phenyl)-propanamide], the midpoint of inhibition, the IC50, lay at 0.166 µM.

As to `Cc1cc(-c2ccc(NC(=O)Cc3n[nH]c4ccc(Br)cc34)cc2)ccn1` [Cpd 79, 2-(5-bromo-1H-indazol-3-yl)-N-(4-(2-methyl-4-pyridinyl)phenyl)acetamide], it took 1.18 µM to reach half-maximal inhibition (IC50).

In turn, `COc1ccc2cc([C@@H](C)C(=O)Nc3ccc(-c4ccnc(C)c4)cc3)ccc2c1` [Cpd 66, (2R)-2-(6-methoxy-2-naphthalenyl)-N-(4-(2-methyl-4-pyridinyl)phenyl)propanamide] yielded a half-inhibitory concentration (IC50) of 0.205 µM. This IC50 lies about 5.8-fold lower than the previous one.

`Cc1cc(-c2ccc(NC(=O)c3ccc4[nH]c5c(c4c3)CSCC5)cc2)ccn1` [Cpd 662]: the IC50 amounted to 5.1 µM.

The molecule `Cc1cc(-c2ccc(NC(=O)[C@H](C)c3ccc4c(c3)[nH]c3ccc(Cl)cc34)cc2)ccn1` [Cpd 122, (2R)-2-(6-chloro-9H-carbazol-2-yl)-N-(4-(2-methyl-4-pyridinyl)phenyl)propanamide] gave an IC50 of 0.328 µM. This IC50 lies about 16-fold lower than the previous one.

As to `Cc1cc(-c2ccc(NC(=O)C(C)c3cccc(-c4ccc(C(=O)N(C)C)cc4)c3)cc2)ccn1` (stereo not shown) [Cpd 157], half-maximal inhibition (IC50) required 0.256 µM. The IC50 values of the last two molecules are within 1.5-fold of each other.

With `Cc1cc(-c2ccc(NC(=O)C(C)c3ccc(N4CCCCC4)nc3)cc2)ccn1` (stereo not shown) [Cpd 580, N-(4-(2-methyl-4-pyridinyl)phenyl)-2-(6-(1-piperidinyl)-3-pyridinyl)propanamide], the IC50 was determined as 0.616 µM.

`Cc1cc(-c2ccc(NC(=O)Cc3cccc4ccccc34)cc2)ccn1` [Cpd 15, N-(4-(2-methyl-4-pyridinyl)phenyl)-2-(1-naphthalenyl)acetamide] yielded an IC50 of 0.883 µM.

Regarding `Cc1cc(-c2ccc(NC(=O)[C@@H](CC(C)C)c3cccc(-c4ccc(N5CCOCC5)cc4)c3)cc2)ccn1` [Cpd 127, (2S)-4-methyl-N-(4-(2-methyl-4-pyridinyl)phenyl)-2-(4′-(4-morpholinyl)-3-biphenylyl)pentanamide], the half-inhibitory concentration (IC50) was 0.129 µM.

As to `Cc1cc(-c2ccc(NC(=O)C3(c4ccc(Cl)cc4Cl)CC3)cc2)ccn1` [Cpd 332], half-maximal inhibition (IC50) required 1.17 µM. This IC50 lies about 9.1-fold higher than the previous one.
